Data from patent publication US20040192774A1, “Method for improving the well-being of poultry by in-ovo injection of carnitine” (priority 2001, published 2004).

Assays:
[1] = system: Cobb-500 strain of broiler chicken; experiment: Floor pen studies: broiler performance after day 18 in-ovo carnitine injection (or carnitine-supplemented feed); type: in vivo; details: for FCR 0-49 (feed conversion ratio): 0 to 49 days post-hatch; for FCR 0-70 (feed conversion ratio): 0 to 70 days post-hatch; for FCR 49-70 (feed conversion ratio): 49 to 70 days post-hatch
Method: (§1) Approximately 4000 embryonated, freshly laid eggs of Cobb-500 strain of broiler chicken (obtained from Cobb Vantress of Siloam Springs, Ark.) were pre-selected as to uniformity of weight and originated from breeder hens at approximately 35-45 weeks of the production cycle. The eggs were kept in a climatised incubation chamber at 37° C. up to day 18 post-laying. Eggs were then injected with either 100 μl sterile physiological saline or 150 μg carnitine comprised in 100 μl sterile physiological saline on day 18 of incubation. Incubation was then carried on until hatch. Carnitine was commercially available L-Carnitine (trade name: Carnifeed, Lonza Inc., 100% L-Carnitine). The eggs were injected with the automatic inovoject-system of Embrex, Inc. (maximum capacity: 50,000 eggs per hour). The system punches a tiny hole into the egg shell and then lowers a needle through the hole which delivers the therapeutic product to the embryo. Needles are automatically sanitized after each injection and provide for 100% inoculation.
(§2) To assess the effect of the carnitine injection carried out according to Example 1, birds were selected at random from the birds originating from the Example 1 and raised up to 70 days. The birds were either placed in a commercial production environment (12 floor pens/trt; 50 birds/pen) or in metabolic chambers with normal feed but subnormal, controlled oxygen supply. The latter is an accepted testing model for trigger the ascites condition in predispositioned birds. Approximately 2400 chicks were allocated to floor pen groups as described below. Three hundred birds were selected at random and incubated in the metabolic chambers. Standard feeds were applied (similar to diets fed to commercial broiler chickens); and nutrient specifications are shown below. Feeds were mixed according to accepted mixing procedures such that treatment diets only differed in presence or absence of carnitine.
Data were analyzed using the General Linear Model procedure of SAS (SAS, 1985). When a significant F statistic was noted by ANOVA, treatment means were compared using least square analysis variance.
Data are only given where probability levels were p≦0.10. In general, carnitine effects, though not always being statistically significant at p<0.05, were consistent across trials.
Number of days post-hatch are indicated, e.g., BW21: Hatched chicks were grown for 21 days prior to measurement.
Mortality (M) is given as main effect mean in %. Number of days post-hatch are indicated, e.g., M21-49: percentage of death birds in the period of 21 to 49 days post-hatch.
Main effect means for feed conversion ratio (FCR, in grams of feed per gram of gain) is given. Number of days post-hatch are indicated, e.g., FCR 0-49: FCR in the period 0 to 49 days post-hatch that chicks were grown. For further control, the effect of in-ovo injection was compared to that of feeding the same diet, except that this diet was supplemented with carnitine at 200 ppm. Feed conversion was improved by carnitine treatment, either fed or injected. The results from both methods of carnitine administration were consistent.

[2] = system: Cobb-500 strain of broiler chicken; experiment: Metabolic chamber studies: subnormal oxygen supply, ascites model; type: in vivo; details: for HCT (hematocrit, packed cell volume) / AS (ascites score): day 14, 17% oxygen
Description: In the context of the present invention, the ascites score is understood as an empirical score from 0 to 3 indicating no to severe myocardial degeneration, based on the histopathological changes. Pathological changes in cardiac traits such as right ventricle weight and ascites heart ratio, defined as the ratio of right ventricle weight to total ventricle weight, are also taken into account.
A score of zero indicated minimal fat deposition and myofiber size variation, whereas a score of three indicated marked myocardial degeneration, highly abnormal cardiac traits and arteritis. A score of two was intermediate to the two extremes.
as §1, §2
Chicks were reared in air-tight chambers at subnormal oxygen supply simulating high altitude conditions. Feed and drinking water were provided for ad-libitum consumption. Chamber temperature was maintained at 30° C. the first 5 days of age and at 27.8° C. thereafter. Chambers were checked twice daily for bird mortality. Compressed dried air (7% relative humidity (rH), 17% oxygen) was delivered to chicks in the chamber via polyethylene tubes. It was necessary to provide low rH-air to the chick chamber in order to hold the chamber at rH below 75%. The concentration of oxygen and carbon dioxide in air exiting each bird's chamber was monitored every 15-25 minutes using Ametek oxygen (accuracy±0.2%) and carbon dioxide (accuracy±0.3%) analyzers, respectively.
Apart from body weight and body temperature at hatching (day 0; BW0, BT0), ascites score (AS) and hematocrit (packed cell volume; HCT) of chicks were determined at day 14. Blood (2 ml) was taken from the birds via venipuncture after which they were euthanized using CO2 and necropsies were performed.
Hearts were weighed whole and then dissected for determination of ascites heart ratio. Heart sections were taken and fixed in 10% buffered neutral formalin for histopathologic examinantion. The results of heart dissection and histopathological analysis were summarized in the ascites score.

[3] = fed: diet supplemented with carnitine at 200 ppm
[4] = injection of carnitine versus not injected

C[N+](C)(C)CC(O)CC(=O)[O-] (stereo not drawn) [carnitine, 3-hydroxy-4-N-trimethylaminobutyric acid]
BW 21 (body weight, main effect mean) ([1]; 150 μg carnitine in-ovo injected on day 18 of incubation, 21 days post-hatch): 719.9 g | BW 49 (body weight, main effect mean) ([1]; 150 μg carnitine in-ovo injected on day 18 of incubation, 49 days post-hatch): 2940.7 g | BW 70 (body weight, main effect mean) ([1]; 150 μg carnitine in-ovo injected on day 18 of incubation, 70 days post-hatch): 4168.1 g | effect on feed conversion (in words) ([1]; carnitine treatment, either fed or injected): improved | FCR 0-49 (feed conversion ratio) [1, 3]: 1.817 grams of feed per gram of gain | FCR 0-70 (feed conversion ratio) [1, 3]: 2.331 grams of feed per gram of gain | FCR 49-70 (feed conversion ratio) [1, 3]: 3.535 grams of feed per gram of gain | FCR 0-49 (feed conversion ratio) ([1]; in-ovo injected day 18): 1.839 grams of feed per gram of gain | FCR 0-70 (feed conversion ratio) ([1]; in-ovo injected day 18): 2.369 grams of feed per gram of gain | FCR 49-70 (feed conversion ratio) ([1]; in-ovo injected day 18): 3.648 grams of feed per gram of gain | WG 0-21 (weight gain, main effect mean) ([1]; in-ovo injected day 18, period 0-21 days post-hatch): 681.7 g | M 0-70 (mortality, main effect mean) ([1]; in-ovo injected day 18, period 0 to 70 days post-hatch): 21.92% | WG 21-49 (weight gain, main effect mean) ([1]; in-ovo injected day 18, period 21-49 days post-hatch): 2220.8 g | M 21-49 (mortality, main effect mean) ([1]; in-ovo injected day 18, period 21 to 49 days post-hatch): 4.66% | WG 49-70 (weight gain, main effect mean) ([1]; in-ovo injected day 18, period 49-70 days post-hatch): 1227.4 g | M 49-70 (mortality, main effect mean) ([1]; in-ovo injected day 18, period 49 to 70 days post-hatch): 14.33% | weight per 100 chicks started ([1]; in-ovo injected eggs, end of the 70 days period post-hatch): 32.54 kg | mortality rate, cumulative ([1]; in-ovo injection, highest age): ~20% | HCT (hematocrit, packed cell volume) ([2]; fed: L-carnitine at 200 ppm (coated on silica particles) via the feed): 30.25 Percent packed cells | AS (ascites score) ([2]; fed: L-carnitine at 200 ppm (coated on silica particles) via the feed, scale from 0-3): 0.303 | BT 0 (body temperature at hatching) ([2]; in-ovo injected day 18, day 0): 101.73 ° F. | BW 0 (body weight at hatching) ([2]; in-ovo injected day 18, day 0): 38.82 g | HCT (hematocrit, packed cell volume) ([2]; in-ovo injected day 18): 30.04 Percent packed cells | AS (ascites score) ([2]; in-ovo injected day 18, scale from 0-3 (no, slight, moderate, severe ascites lesions)): 0.277 | effect on ascites score (in words) [2, 4]: decreased | effect on hematocrit (in words) [2, 4]: decreased | increase of body weight at hatching ([2]; single injection of carnitine into incubating eggs, versus control): 0.5 g
